Source: patent US9636418B2 (priority 2013, dated 2017)
Like-named read-outs stand apart in the source and are kept apart here.

Assays:
Experiment in all cases: cell-based
hNav1.4 = hNav1.4 (Homo sapiens, UniProt P35499); settings: for IC50: PatchXpress, read-out: PX hNav1.4 Tonic IC50
hNav1.7 = hNav1.7 (Homo sapiens, UniProt Q15858); format: cell-based; settings: PatchXpress, read-out: PX hNav1.7 Tonic IC50
hNav1.5 = hNav1.5 (Homo sapiens, UniProt Q14524); settings: for IC50: PatchXpress, read-out: PX hNav1.5 Tonic IC50; for Nav1.5/Nav1.7: ratio of PX tonic IC50 values
Chain of hNav1.5 (Q14524 whole entry): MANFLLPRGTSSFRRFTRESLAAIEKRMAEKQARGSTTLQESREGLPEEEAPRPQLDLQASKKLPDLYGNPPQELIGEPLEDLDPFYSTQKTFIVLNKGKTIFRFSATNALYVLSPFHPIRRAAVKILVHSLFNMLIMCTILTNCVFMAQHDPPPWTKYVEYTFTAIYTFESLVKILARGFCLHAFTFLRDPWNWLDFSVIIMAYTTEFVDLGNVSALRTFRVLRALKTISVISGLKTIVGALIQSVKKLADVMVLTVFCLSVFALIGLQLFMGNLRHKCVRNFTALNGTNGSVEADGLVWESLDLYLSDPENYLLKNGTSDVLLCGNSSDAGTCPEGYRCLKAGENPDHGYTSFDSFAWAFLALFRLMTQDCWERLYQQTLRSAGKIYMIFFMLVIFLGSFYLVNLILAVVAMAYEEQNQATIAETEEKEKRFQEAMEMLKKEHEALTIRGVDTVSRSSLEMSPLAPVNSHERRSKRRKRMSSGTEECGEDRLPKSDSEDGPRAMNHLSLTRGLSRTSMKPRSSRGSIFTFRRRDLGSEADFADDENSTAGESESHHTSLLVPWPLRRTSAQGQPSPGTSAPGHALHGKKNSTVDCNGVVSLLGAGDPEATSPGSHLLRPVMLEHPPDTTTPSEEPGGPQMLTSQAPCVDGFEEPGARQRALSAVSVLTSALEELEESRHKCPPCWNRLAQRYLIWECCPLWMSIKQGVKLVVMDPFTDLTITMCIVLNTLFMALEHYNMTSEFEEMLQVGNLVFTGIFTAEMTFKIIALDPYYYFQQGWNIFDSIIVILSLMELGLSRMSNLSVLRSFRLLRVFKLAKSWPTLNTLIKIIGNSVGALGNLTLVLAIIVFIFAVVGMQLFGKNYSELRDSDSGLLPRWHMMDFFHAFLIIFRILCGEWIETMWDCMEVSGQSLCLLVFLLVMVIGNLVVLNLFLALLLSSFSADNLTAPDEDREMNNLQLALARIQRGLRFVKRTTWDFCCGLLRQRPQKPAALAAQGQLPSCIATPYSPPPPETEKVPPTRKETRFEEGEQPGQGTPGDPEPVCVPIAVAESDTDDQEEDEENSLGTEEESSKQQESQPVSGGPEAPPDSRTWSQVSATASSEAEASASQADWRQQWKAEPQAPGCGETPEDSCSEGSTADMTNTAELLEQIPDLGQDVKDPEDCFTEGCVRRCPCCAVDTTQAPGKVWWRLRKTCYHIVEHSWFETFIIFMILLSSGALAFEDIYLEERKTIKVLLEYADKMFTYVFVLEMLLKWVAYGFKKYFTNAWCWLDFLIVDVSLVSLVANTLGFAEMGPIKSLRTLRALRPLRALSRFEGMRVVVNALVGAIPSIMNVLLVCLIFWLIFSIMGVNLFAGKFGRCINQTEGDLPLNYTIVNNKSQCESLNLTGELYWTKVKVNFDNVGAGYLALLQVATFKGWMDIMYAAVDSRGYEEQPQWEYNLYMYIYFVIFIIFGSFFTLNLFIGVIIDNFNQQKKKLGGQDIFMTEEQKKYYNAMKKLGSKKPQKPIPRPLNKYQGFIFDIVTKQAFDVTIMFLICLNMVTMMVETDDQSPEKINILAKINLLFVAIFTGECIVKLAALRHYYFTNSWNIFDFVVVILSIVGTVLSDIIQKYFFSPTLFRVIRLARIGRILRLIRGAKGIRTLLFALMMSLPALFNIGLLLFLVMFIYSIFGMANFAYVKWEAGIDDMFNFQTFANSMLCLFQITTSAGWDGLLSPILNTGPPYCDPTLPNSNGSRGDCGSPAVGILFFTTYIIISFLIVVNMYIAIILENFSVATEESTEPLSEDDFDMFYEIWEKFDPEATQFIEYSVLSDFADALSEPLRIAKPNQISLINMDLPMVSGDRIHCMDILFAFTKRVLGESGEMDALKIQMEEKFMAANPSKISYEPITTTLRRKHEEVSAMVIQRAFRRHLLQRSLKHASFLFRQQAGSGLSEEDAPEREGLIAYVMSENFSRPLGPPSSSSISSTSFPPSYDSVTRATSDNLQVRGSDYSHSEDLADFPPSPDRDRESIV

[1] = * = at high concentrations compound would wash off slowly or not at all

Chain of hNav1.4 (P35499 whole entry): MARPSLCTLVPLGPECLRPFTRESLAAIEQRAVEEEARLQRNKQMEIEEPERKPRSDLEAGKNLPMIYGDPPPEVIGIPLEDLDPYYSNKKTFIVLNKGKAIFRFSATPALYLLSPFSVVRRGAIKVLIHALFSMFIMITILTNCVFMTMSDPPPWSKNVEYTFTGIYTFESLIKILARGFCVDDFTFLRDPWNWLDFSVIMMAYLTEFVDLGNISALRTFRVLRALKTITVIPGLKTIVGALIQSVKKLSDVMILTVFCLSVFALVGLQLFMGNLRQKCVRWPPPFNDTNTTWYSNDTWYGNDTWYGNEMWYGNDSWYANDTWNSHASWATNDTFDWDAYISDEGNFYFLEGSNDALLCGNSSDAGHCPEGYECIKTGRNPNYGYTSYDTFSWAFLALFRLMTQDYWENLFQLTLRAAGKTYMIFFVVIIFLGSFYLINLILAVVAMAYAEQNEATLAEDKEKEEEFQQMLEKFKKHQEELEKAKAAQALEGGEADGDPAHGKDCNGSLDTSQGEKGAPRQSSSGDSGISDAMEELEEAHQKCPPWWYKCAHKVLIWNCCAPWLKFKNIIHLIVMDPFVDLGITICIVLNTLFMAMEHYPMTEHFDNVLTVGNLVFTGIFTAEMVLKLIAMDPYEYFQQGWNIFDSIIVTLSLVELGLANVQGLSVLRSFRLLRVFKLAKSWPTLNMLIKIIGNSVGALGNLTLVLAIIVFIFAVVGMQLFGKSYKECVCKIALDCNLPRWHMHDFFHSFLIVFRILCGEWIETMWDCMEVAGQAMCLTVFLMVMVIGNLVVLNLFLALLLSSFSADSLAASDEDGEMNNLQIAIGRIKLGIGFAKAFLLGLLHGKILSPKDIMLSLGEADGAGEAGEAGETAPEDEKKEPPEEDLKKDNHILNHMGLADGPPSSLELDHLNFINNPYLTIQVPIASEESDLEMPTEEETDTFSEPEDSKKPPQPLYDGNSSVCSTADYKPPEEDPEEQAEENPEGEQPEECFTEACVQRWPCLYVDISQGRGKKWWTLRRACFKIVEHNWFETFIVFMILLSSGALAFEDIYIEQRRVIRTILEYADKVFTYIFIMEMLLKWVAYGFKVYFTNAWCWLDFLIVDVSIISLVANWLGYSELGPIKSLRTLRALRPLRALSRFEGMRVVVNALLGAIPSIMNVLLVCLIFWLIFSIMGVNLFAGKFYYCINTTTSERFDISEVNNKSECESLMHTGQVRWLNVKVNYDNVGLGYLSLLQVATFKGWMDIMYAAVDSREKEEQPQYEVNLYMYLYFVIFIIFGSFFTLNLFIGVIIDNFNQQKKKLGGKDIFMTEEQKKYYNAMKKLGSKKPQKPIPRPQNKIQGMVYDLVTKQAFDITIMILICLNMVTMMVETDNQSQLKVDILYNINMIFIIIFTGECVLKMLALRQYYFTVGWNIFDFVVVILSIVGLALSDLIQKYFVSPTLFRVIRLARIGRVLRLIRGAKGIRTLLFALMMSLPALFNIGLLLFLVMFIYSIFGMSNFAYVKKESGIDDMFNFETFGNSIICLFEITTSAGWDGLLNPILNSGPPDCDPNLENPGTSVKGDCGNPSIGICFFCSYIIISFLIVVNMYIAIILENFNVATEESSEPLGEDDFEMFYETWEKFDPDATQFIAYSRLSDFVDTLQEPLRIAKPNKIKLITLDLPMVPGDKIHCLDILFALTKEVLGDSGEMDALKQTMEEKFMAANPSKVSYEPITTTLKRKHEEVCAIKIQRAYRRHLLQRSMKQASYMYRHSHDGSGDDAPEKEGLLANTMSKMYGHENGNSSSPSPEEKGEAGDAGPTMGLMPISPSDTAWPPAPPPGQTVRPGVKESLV

With C#CC[C@@H]1NC(=O)[C@H](CCCNC(=N)N)NC(=O)[C@H](CCCCN)NC(=O)[C@H](CO)NC(=O)[C@H](CC(=O)O)NC(=O)[C@@H]2CSSC[C@@H]3NC(=O)[C@H](CCC(=O)O)NC(=O)[C@H](CC(C)C)NC(=O)CNC(=O)[C@H](CCC(=O)O)NC(=O)[C@H](CSSC[C@H](NC(=O)[C@@H](N)Cc4ccc(O)cc4)C(=O)N[C@@H](CCC(N)=O)C(=O)N[C@@H](CCCCN)C(=O)N[C@@H](Cc4c[nH]c5ccccc45)C(=O)N[C@@H](CCCC)C(=O)N[C@@H](Cc4c[nH]c5ccccc45)C(=O)N[C@@H]([C@@H](C)O)C(=O)N2)NC(=O)[C@H](CSSC[C@@H](C(=O)N[C@@H](CCCNC(=N)N)C(=O)N[C@@H](CCCCN)C(=O)N[C@H](C(=O)N[C@H](C(N)=O)[C@@H](C)CC)[C@@H](C)CC)NC(=O)[C@H](Cc2c[nH]c4ccccc24)NC(=O)[C@H](CC(C)C)NC(=O)[C@H](CCCCN)NC3=O)NC1=O [compound 345] the IC50 (hNav1.4; tonic block) was 1660 nM, the IC50 (hNav1.7; tonic block) was 7.16 nM and the IC50 (hNav1.5; tonic block) was 4570 nM.
Work on CCCC[C@@H]1NC(=O)[C@H](Cc2c[nH]c3ccccc23)NC(=O)[C@H](CCCCN)NC(=O)[C@H](CCC(N)=O)NC(=O)[C@@H](NC(=O)[C@@H](N)Cc2ccc(O)cc2)CSSC[C@@H]2NC(=O)[C@@H]3CSSC[C@@H](C(=O)N[C@@H](CCCNC(=N)N)C(=O)N[C@@H](CCCCN)C(=O)N[C@H](C(=O)N[C@@H](Cc4c[nH]c5ccccc45)C(N)=O)[C@@H](C)CC)NC(=O)[C@H](Cc4c[nH]c5ccccc45)NC(=O)[C@H](CC(C)C)NC(=O)[C@H](CCCCN)NC(=O)[C@H](CSSC[C@H](NC(=O)[C@H]([C@@H](C)O)NC(=O)[C@H](Cc4c[nH]c5ccccc45)NC1=O)C(=O)N[C@@H](CC(=O)O)C(=O)N[C@@H](CCCCN=[N+]=[N-])C(=O)N[C@@H](CCCCN)C(=O)N[C@@H](CCCNC(=N)N)C(=O)N[C@@H](C)C(=O)N3)NC(=O)[C@H](CCC(=O)O)NC(=O)[C@H](CC(C)C)NC(=O)CNC(=O)[C@H](CCC(=O)O)NC2=O [compound 305] yielded a Nav1.4/Nav1.7 (hNav1.4; ratio of PX tonic IC50 values) of 0, an IC50 (hNav1.7; tonic block) of 435 nM and a Nav1.5/Nav1.7 (hNav1.5) of 0.
C#CC[C@H](N)C(=O)NCCOCCOCCOCCOCCC(=O)NCCCC[C@@H]1NC(=O)[C@@H]2CSSC[C@H](NC(=O)[C@H](Cc3ccc(O)cc3)NC(=O)[C@@H](N)CC#N)C(=O)N[C@@H](CCC(N)=O)C(=O)N[C@@H](CCCCN)C(=O)N[C@@H](Cc3c[nH]c4ccccc34)C(=O)N[C@@H](CCCC)C(=O)N[C@@H](Cc3c[nH]c4ccccc34)C(=O)N[C@@H]([C@@H](C)O)C(=O)N[C@H]3CSSC[C@H](NC(=O)[C@H](CCCNC(=N)N)NC(=O)[C@H](CC(C)C)NC(=O)CNC1=O)C(=O)N[C@@H](CCCCN)C(=O)N[C@@H](CC(C)C)C(=O)N[C@@H](Cc1c[nH]c4ccccc14)C(=O)N[C@H](C(=O)N[C@@H](CCCNC(=N)N)C(=O)N[C@@H](CCCCN)C(=O)N[C@H](C(=O)N[C@H](C(N)=O)[C@@H](C)CC)[C@@H](C)CC)CSSC[C@H](NC(=O)[C@H](C)NC(=O)[C@H](CCCNC(=N)N)NC(=O)[C@H](CCCCN)NC(=O)[C@H](CO)NC(=O)[C@H](CC(=O)O)NC3=O)C(=O)N2 [compound 385] was tested, and the Nav1.4/Nav1.7 (hNav1.4; ratio of PX tonic IC50 values) was 0, the IC50 (hNav1.7; tonic block) was 3.64 nM and the Nav1.5/Nav1.7 (hNav1.5) was 0.
Compound CC[C@H](C)[C@H](NC(=O)[C@@H](NC(=O)[C@H](CCCCN)NC(=O)[C@H](CCCNC(=N)N)NC(=O)[C@@H]1CSSC[C@@H]2NC(=O)[C@H](C)NC(=O)[C@H](CCCNC(=N)N)NC(=O)[C@H](CCCCN)NC(=O)[C@H](CO)NC(=O)[C@H](CC(=O)O)NC(=O)[C@@H]3CSSC[C@H](NC(=O)[C@H](C)NC(=O)[C@H](CC(C)C)NC(=O)CNC(=O)[C@H](CCC(=O)O)NC(=O)[C@H](CSSC[C@H](NC(=O)[C@@H](N)Cc4ccc(O)cc4)C(=O)N[C@@H](CCC(N)=O)C(=O)N[C@@H](CCCCN)C(=O)N[C@@H](Cc4c[nH]c5ccccc45)C(=O)N[C@@H](CCSC)C(=O)N[C@@H](Cc4c[nH]c5ccccc45)C(=O)N[C@@H]([C@@H](C)O)C(=O)N3)NC2=O)C(=O)N[C@@H](CCCCN)C(=O)N[C@@H](CC(C)C)C(=O)N[C@@H](Cc2c[nH]c3ccccc23)C(=O)N1)[C@@H](C)CC)C(N)=O [compound 17] has an IC50 (hNav1.4; [1]) of 100 nM, a Nav1.4/Nav1.7 (hNav1.4; ratio of PX IC50 values) of 8 and an IC50 (hNav1.7; [1]) of 12 nM. For the same compound, the IC50 (hNav1.5; [1]) was 2750 nM.
For C#CC[C@@H]1NC(=O)[C@@H]2CSSC[C@H](NC(=O)[C@@H](N)Cc3ccc(O)cc3)C(=O)N[C@@H](CCC(N)=O)C(=O)N[C@@H](CCCCN)C(=O)N[C@@H](Cc3c[nH]c4ccccc34)C(=O)N[C@@H](CCCC)C(=O)N[C@@H](Cc3c[nH]c4ccccc34)C(=O)N[C@@H]([C@@H](C)O)C(=O)N[C@H]3CSSC[C@H](NC(=O)[C@H](CCC(=O)O)NC(=O)[C@H](CC(C)C)NC(=O)CNC1=O)C(=O)N[C@@H](CCCCN)C(=O)N[C@@H](CC(C)C)C(=O)N[C@@H](Cc1c[nH]c4ccccc14)C(=O)N[C@H](C(=O)N[C@@H](CCCNC(=N)N)C(=O)N[C@@H](CCCCN)C(=O)N[C@H](C(=O)N[C@H](C(N)=O)[C@@H](C)CC)[C@@H](C)CC)CSSC[C@H](NC(=O)[C@H](C)NC(=O)[C@H](CCCNC(=N)N)NC(=O)[C@H](CCCCN)NC(=O)[C@H](CO)NC(=O)[C@H](CC(=O)O)NC3=O)C(=O)N2 [compound 346], the IC50 (hNav1.4; tonic block) was 291 nM, the Nav1.4/Nav1.7 (hNav1.4; ratio of PX tonic IC50 values) was 29 and the IC50 (hNav1.7; tonic block) was 9.95 nM. For the same compound, the IC50 (hNav1.5; tonic block) was 1020 nM.
In the case of C#CC[C@@H]1NC(=O)[C@H](CC(=O)O)NC(=O)[C@@H]2CSSC[C@@H]3NC(=O)[C@H](CCCNC(=N)N)NC(=O)[C@H](CC(C)C)NC(=O)CNC(=O)[C@H](CCC(=O)O)NC(=O)[C@H](CSSC[C@H](NC(=O)[C@@H](N)Cc4ccc(O)cc4)C(=O)N[C@@H](CCC(N)=O)C(=O)N[C@@H](CCCCN)C(=O)N[C@@H](Cc4c[nH]c5ccccc45)C(=O)N[C@@H](CCCC)C(=O)N[C@@H](Cc4c[nH]c5ccccc45)C(=O)N[C@@H]([C@@H](C)O)C(=O)N2)NC(=O)[C@H](CSSC[C@@H](C(=O)N[C@@H](CCCNC(=N)N)C(=O)N[C@@H](CCCCN)C(=O)N[C@@H](CCC(=O)O)C(=O)N[C@H](C(N)=O)[C@@H](C)CC)NC(=O)[C@H](Cc2c[nH]c4ccccc24)NC(=O)[C@H](CC(C)C)NC(=O)[C@H](CCCCN)NC3=O)NC(=O)[C@H](C)NC(=O)[C@H](CCCNC(=N)N)NC(=O)[C@H](CCCCN)NC1=O [compound 330], the IC50 (hNav1.4; tonic block) is reported as 222 nM, the IC50 (hNav1.7; tonic block) is reported as 0.763 nM and the IC50 (hNav1.5; tonic block) is reported as 5980 nM.
With CCCC[C@@H]1NC(=O)[C@H](Cc2c[nH]c3ccccc23)NC(=O)[C@H](CCCCN)NC(=O)[C@H](CCC(N)=O)NC(=O)[C@@H](NC(=O)[C@H](Cc2ccc(O)cc2)NC(=O)[C@@H](N)CC#N)CSSC[C@@H]2NC(=O)[C@@H]3CSSC[C@@H](C(=O)N[C@@H](CCCNC(=N)N)C(=O)N[C@@H](CCCCN)C(=O)N[C@@H](CCC(=O)O)C(=O)N[C@H](C(N)=O)[C@@H](C)CC)NC(=O)[C@H](Cc4c[nH]c5ccccc45)NC(=O)[C@H](CC(C)C)NC(=O)[C@H](CCCCN)NC(=O)[C@H](CSSC[C@H](NC(=O)[C@H]([C@@H](C)O)NC(=O)[C@H](Cc4c[nH]c5ccccc45)NC1=O)C(=O)N[C@@H](CC(=O)O)C(=O)N[C@@H](CO)C(=O)N[C@@H](CCCCN)C(=O)N[C@@H](CCCNC(=N)N)C(=O)N[C@@H](C)C(=O)N3)NC(=O)[C@H](CCCNC(=N)N)NC(=O)[C@H](CC(C)C)NC(=O)CNC(=O)[C@H](Cc1cn(CCCOCCOCCOCCOCCOCCOCCOCCOCCOCCOCCN)nn1)NC2=O [compound 443] the IC50 (hNav1.4; [1]) was 172 nM, the IC50 (hNav1.7; [1]) was 5.62 nM and the IC50 (hNav1.5; [1]) was 1330 nM.
